pIC50: −log10 of the molar value.
Key:
[1] = test system: NIH3T3 fibroblasts within HEY/NIH microtissues; settings: day 3
[2] = test system: HEY/NIH microtissues (HEY-GFP ovarian cancer cells + NIH3T3 fibroblasts); type: cell-based, human; settings: read-out: IC50 ATP; HEY/NIH spheroids, ATP content at treatment day 7
HEY/NIH3T3 microtissues = experiment: Microtissue size over time, HEY/NIH microtissues; type: cell-based, human; settings: HEY/NIH3T3, % maximal response at 20 μM
[3] = test system: SKOV/NIH microtissues (SKOV-3 ovarian cancer cells + NIH3T3 fibroblasts); type: cell-based, human; settings: read-out: IC50 ATP; SKOV/NIH spheroids, ATP content at treatment day 7
[4] = test system: PANC/NIH microtissues (PANC-1 pancreatic cancer cells + NIH3T3 fibroblasts); type: cell-based, human; settings: read-out: IC50 ATP; PANC/NIH spheroids, ATP content at treatment day 7
[5] = test system: NIH3T3 fibroblasts within SKOV/NIH microtissues
[6] = test system: NIH3T3 fibroblasts within PANC/NIH microtissues; type: cell-based, mouse; settings: PANC1/NIH, day 3 (acute toxicity)

SMILES: CC(C)C[C@H](NC(=O)[C@H](CCc1ccccc1)NC(=O)CN1CCOCC1)C(=O)N[C@@H](Cc1ccccc1)C(=O)N[C@@H](CC(C)C)C(=O)[C@@]1(C)CO1 [Carfilzomib]
- therapeutic window, ratio of adverse to therapeutic effect [1]: 578 fold

SMILES: CN(C)CCCN=c1c2ccccc2n(C)c2[nH]c(=O)n(C)c(=O)c12 [HLI-373989]
- pIC50 [2]: 5.43

SMILES: c1cncc(CN2CCC(n3ncc4c(N5CCOCC5)nc(-c5ccc6[nH]ccc6c5)nc43)CC2)c1 [WAY-600]
- pIC50 [2]: 5.77
- effect on tumor size early in the treatment (HEY/NIH3T3 microtissues): reduce tumor size
- pIC50 [3]: 6.29
- pIC50 [4]: 5.13

SMILES: C=CC(=O)Nc1cc2c(Nc3ccc(F)c(Cl)c3)ncnc2cc1C#CC(C)(C)N1CCN(C)CC1 [AV-412]
- pIC50 [2]: 5.89
- pIC50 [3]: 7.10
- pIC50 [4]: 5.61

SMILES: Cc1nc(Nc2ncc(C(=O)Nc3c(C)cccc3Cl)s2)cc(N2CCN(CCO)CC2)n1 [Dasatinib]
- effect on tumor size early in the treatment (HEY/NIH3T3 microtissues): reduce tumor size

SMILES: CC1=C(C(=O)Nc2cc3cn[nH]c3cc2F)C(c2ccc(Cl)cc2F)N=C(c2ccnc(Cl)c2)N1 (centres unmarked) [GSK-25]
- pIC50 [2]: 5.21
- pIC50 [3]: 5.32
- pIC50 [4]: 5.03

SMILES: Cn1c(=O)c(F)c(Nc2ccc(I)cc2F)c2c(=O)n(C[C@@H](O)CO)cnc21 [TAK-733]
- effect on tumor size early in the treatment (HEY/NIH3T3 microtissues): reduce tumor size

SMILES: Cc1ccc(-c2ncn(-c3ccc(Nc4nccc(-c5cccc(N6CCOCC6)c5)n4)cc3)n2)cn1 [SR-3306]
- pIC50 [2]: 7.24
- pIC50 [3]: 7.89
- pIC50 [4]: 7.66

SMILES: Cc1ccc(/C=N/NC(=O)c2ccccc2Oc2ccccc2)o1 [PNU-74654]
- pIC50 [3]: 5.55

SMILES: COC(=O)[C@]12CCC(C)(C)C[C@H]1[C@H]1C(=O)C=C3[C@@]4(C)C=C(C#N)C(=O)C(C)(C)[C@@H]4CC[C@@]3(C)[C@]1(C)CC2 [Bardoxolone methyl]
- pIC50 [4]: 5.87

SMILES: C/C=C1\NC(=O)[C@H]2CSSCC/C=C/[C@H](CC(=O)N[C@H](C(C)C)C(=O)N2)OC(=O)[C@H](C(C)C)NC1=O [Romidepsin]
- viability of the stromal cells [5]: significantly lowered the viability of the stromal cells

SMILES: CSc1cccc(Nc2ncc3cc(-c4c(Cl)cccc4Cl)c(=O)n(C)c3n2)c1 [PD-173955]
- pIC50 [2]: 6.32

SMILES: O=C(O)C1CCCN(CCC=C(c2ccccc2)c2ccccc2)C1 (centres unmarked) [SK&F-89976A]
- pIC50 [2]: 4.82

SMILES: O=C1C(Cl)=C(NCCN2CCOCC2)C(=O)c2ncccc21 [DA-3003-1]
- pIC50 [2]: 5.13

SMILES: CNC(=O)[C@H](Cc1c[nH]c2ccccc12)NC(=O)[C@@H](CC(=O)NO)CC(C)C [GM-6001]
- pIC50 [3]: 5.41
- pIC50 [4]: 5.02

SMILES: Nc1ccc(-c2ccc3ncc4ccc(=O)n(-c5cccc(C(F)(F)F)c5)c4c3c2)cn1 [Torin-2]
- therapeutic window, ratio of adverse to therapeutic effect [6]: 5,524 fold
- pIC50 [2]: 7.57
- pIC50 [3]: 8.70
- pIC50 [4]: 9.00

— paper PMC11271247 (SLAS discovery : advancing life sciences R & D, 2019)
